Test results published in patent US20250332201A1, “PHARMACEUTICAL COMPOSITION, MEGASPHAERA, AND USE THEREOF” (MOON (GUANGZHOU) BIOTECH CO., LTD., priority 2022, published 2025).

Assays:
[1] = test system: strain MNH05026; experiment: Antibiotic sensitivity test, disk diffusion method; assay type: cell-based, Megasphaera sp.
Method: (§1) Antibiotic sensitivity tests of the strains MNH05026, MNH22004, and MNH27256: Antibiotic sensitivity tests were carried out on the strains MNH05026, MNH22004, and MNH27256 by a disk diffusion method.

[2] = test system: strain MNH22004; experiment: Antibiotic sensitivity test, disk diffusion method; assay type: cell-based, Megasphaera sp.
Method: as §1

[3] = test system: strain MNH27256; experiment: Antibiotic sensitivity test, disk diffusion method; assay type: cell-based, Megasphaera sp.
Method: as §1

[4] = test system: mice with NAFLD/NASH induced by a high-fat, high-carbohydrate, and high-cholesterol diet; experiment: NAFLD/NASH mouse model (high-fat, high-carbohydrate, high-cholesterol diet), strains combined with Semaglutide (Example 9); assay type: in vivo, C57BL/6J mice
Method: 3) Controls: PBS-Cys containing 25% glycerol PBS-Cys was used as a negative control; and Semaglutide was used as a positive control.
Administration was initiated after the grouping (D1). The negative control group was given the negative control (PBS-Cys) by gavage, 0.2 mL/mouse, twice a day; the positive control group was given Semaglutide by subcutaneous injection, at a dose of 30 nmol/kg, once every 3 days; and the combined treatment group was given Semaglutide (at a dose and frequency of use the same as those in the positive control group) and the corresponding bacterial solution (0.2 mL/mouse, twice a day) by gavage. The experimental period was 60 days. […] During the experiment, one general clinical observation was conducted after the end of each dosing. The animals were weighed twice a week during the dosing, and before dissection at the experimental endpoint. The endpoint of this experiment was the day following the end of dosing (D61). The animals were dissected and sampled according to the protocol at the experimental endpoint, and the data were summarized to analyze the results. […] Statistical analysis was performed using One-Way ANOVA with Dunnett's multiple comparison test.
Relevant experiments were conducted for the strains MNH05026, MNH22004, and MNH27256 using the methods as described in 1) to 4) above.

Row | Compound | Sensitivity or resistance of strain MNH05026 to the antibiotic [1] | Sensitivity or resistance of strain MNH22004 to the antibiotic [2] | Sensitivity or resistance of strain MNH27256 to the antibiotic [3] | further results
1 | CC1(C)S[C@@H]2[C@H](NC(=O)[C@H](N)c3ccccc3)C(=O)N2[C@H]1C(=O)O [Ampicillin] | sensitive | resistant | resistant | 
2 | CO/N=C(\C(=O)N[C@@H]1C(=O)N2C(C(=O)O)=C(CSc3nc(=O)c(=O)[nH]n3C)CS[C@H]12)c1csc(N)n1 [Ceftriaxone] | sensitive | sensitive | resistant | 
3 | O=C(N[C@H](CO)[C@H](O)c1ccc([N+](=O)[O-])cc1)C(Cl)Cl [Chloramphenicol] | sensitive | sensitive | sensitive | 
4 | O=C(O)c1cn(C2CC2)c2cc(N3CCNCC3)c(F)cc2c1=O [Ciprofloxacin] | sensitive | sensitive | sensitive | 
5 | CC[C@H]1OC(=O)[C@H](C)[C@@H](O[C@H]2C[C@@](C)(OC)[C@@H](O)[C@H](C)O2)[C@H](C)[C@@H](O[C@@H]2O[C@H](C)C[C@H](N(C)C)[C@H]2O)[C@](C)(O)C[C@@H](C)C(=O)[C@H](C)[C@@H](O)[C@]1(C)O [Erythromycin] | sensitive | sensitive | sensitive | 
6 | CCC[C@@H]1C[C@@H](C(=O)N[C@@H]([C@H]2O[C@H](SC)[C@H](O)[C@@H](O)[C@H]2O)[C@@H](C)O)N(C)C1 [Lincomycin] | sensitive | sensitive | sensitive | 
7 | Gentamicin | sensitive | sensitive | sensitive | Diameter of inhibition zone by MNH22004 [2]: 9.00 mm
8 | Penicillin | sensitive | resistant | resistant | Diameter of inhibition zone by MNH22004 [2]: 0 mm; Diameter of inhibition zone by MNH27256 [3]: 0 mm
9 | Semaglutide |  |  |  | fasting blood glucose ([4]; Day 30 of oral glucose tolerance test): no significant effect; body weight, 1 d ([4]; day 1, in g (unit assumed)): 45.97; body weight, 33 d ([4]; day 33, in g (unit assumed)): 36.18; weight gain value ([4]; day 33 of intervention): −21.30%; body weight, 36 d ([4]; day 36, in g (unit assumed)): 35.94; body weight, 41 d ([4]; day 41, in g (unit assumed)): 35.98; body weight, 44 d ([4]; day 44, in g (unit assumed)): 36.34; body weight, 48 d ([4]; day 48, in g (unit assumed)): 37.02; body weight, 51 d ([4]; day 51, in g (unit assumed)): 37.26; body weight, 54 d ([4]; day 54, in g (unit assumed)): 36.84; body weight, 58 d ([4]; day 58, in g (unit assumed)): 38.09; body weight, 60 d ([4]; day 60, in g (unit assumed)): 36.67
10 | Trimethoprim-sulfamethoxazole | sensitive | sensitive | sensitive | 
